In patent publication US20050004186A1, “MEK inhibiting compounds” (Pfizer Inc, priority 2002, published 2005):
Counter-ions that a name gives are not always drawn.

Tests used:
[1] = test system: MEK; assay: Cellular assay for measuring MEK inhibition, C26CPA1 (inhibition of ERK phosphorylation in C26 cells); assay type: cell-based, murine; settings: for C26CPA1 % Inhibition @ 0.1 μM / C26CPA1 % Inhibition @ 1 μM: C26 cells
Protocol: Cellular Assay for Measuring MEK Inhibition
MEK inhibitors were evaluated by determining their ability to inhibit phosphorylation of MAP kinase (ERK) in murine colon 26 (C26) carcinoma cells. Since ERK1 and ERK2 represent the only known substrates for MEK1 and MEK2, the measurement of inhibition of ERK phosphorylation in cells provides direct read out of cellular MEK inhibition by the compounds of the invention. Detection of phosphorylation of ERK was carried out either by Western blot or ELISA format. Briefly, the assays involve treatment of exponentially growing C26 cells with varying concentrations of the test compound (or vehicle control) for one hour at 37≡ C. For Western blot assay, cells were rinsed free of compound/vehicle and lysed in a solution containing 70 mM NaCl, 50 mM glycerol phosphate, 10 mM HEPES, […], 1% Triton X-100, 1 mM Na3VO4, 100 μM PMSF, 10 μM leupeptin and 10 μM pepstatin. Supernatants were then subjected to gel electrophoresis and hybridized to a primary antibody recognizing dually phosphorylated ERK1 and ERK2. To evaluate total MAPK levels, blots were subsequently ‘stripped’ and re-probed with a 1:1 mixture of polyclonal antibodies recognizing unphosphorylated ERK1 and ERK2. For pERK ELISA assay, pERK TiterZyme Enzyme immunometric Assay kits were acquired from Assay Designs, Inc (Ann Arbor, Mich.). Briefly, cells were harvested in lysis solution containing 50 mM β-glycerophosphate, 10 mM HEPES, pH7.4, 70 mM NaCl, 2 mM EDTA and 1% SDS and protein lysates were diluted 1:15 with supplied Assay buffer prior to the execution of the assay. The subsequent steps were carried out essentially as recommended by the manufacturer.

SMILES | melting point | further results
CN(C)CCCN(C)c1nnc(-c2ccc(F)c(F)c2Nc2ccc(I)cc2F)o1 (as salt: hydrochloride) [Example 12, N-{5-[3,4-Difluoro-2-(2-fluoro-4-iodo-phenylamino)-phenyl]-[1,3,4]oxadiazol-2-yl}-N,N′,N′-trimethyl-propane-1,3-diamine] | 123 to 126 °C | –
Fc1cc(I)ccc1Nc1c(-c2nnc(NCCN3CCCCC3)o2)ccc(F)c1F (as salt: hydrochloride) [Example 13, {5-[3,4-Difluoro-2-(2-fluoro-4-iodo-phenylamino)-phenyl]-[1,3,4]oxadiazol-2-yl}-(2-piperidin-1-yl-ethyl)-amine] | 191 to 193 °C | –
NCCCCNc1nnc(-c2ccc(F)c(F)c2Nc2ccc(I)cc2F)o1 (as salt: hydrochloride) [Example 14, N′1′-{5-[3,4-Difluoro-2-(2-fluoro-4-iodo-phenylamino)-phenyl]-[1,3,4]oxadiazol-2-yl}-butane-1,4-diamine] | 157 to 159 °C | –
NCCCNc1nnc(-c2ccc(F)c(F)c2Nc2ccc(I)cc2F)o1 (as salt: hydrochloride) [Example 15, N′1′-{5-[3,4-Difluoro-2-(2-fluoro-4-iodo-phenylamino)-phenyl]-[1,3,4]oxadiazol-2-yl}-propane-1,3-diamine] | 173 to 176 °C | –
CN(C)CCCNc1nnc(-c2ccc(F)c(F)c2Nc2ccc(I)cc2F)o1 (as salt: hydrochloride) [Example 16, N-{5-[3,4-Difluoro-2-(2-fluoro-4-iodo-phenylamino)-phenyl]-[1,3,4]oxadiazol-2-yl}-N′,N′-dimethyl-propane-1,3-diamine] | 168 to 170 °C | –
CN(C)CCNc1nnc(-c2ccc(F)c(F)c2Nc2ccc(I)cc2F)o1 (as salt: hydrochloride) [Example 17, N-{5-[3,4-Difluoro-2-(2-fluoro-4-iodo-phenylamino)-phenyl]-[1,3,4]oxadiazol-2-yl}-N′,N′-dimethyl-ethane-1,2-diamine] | 184 to 187 °C | –
CNCCNc1nnc(-c2ccc(F)c(F)c2Nc2ccc(I)cc2F)o1 (as salt: hydrochloride) [Example 18, N-{5-[3,4-Difluoro-2-(2-fluoro-4-iodo-phenylamino)-phenyl]-[1,3,4]oxadiazol-2-yl}-N′-methyl-ethane-1,2-diamine] | 173 to 175 °C | –
NCCNc1nnc(-c2ccc(F)c(F)c2Nc2ccc(I)cc2F)o1 (as salt: salt) [Example 11, N′1′-{5-[3,4-Difluoro-2-(2-fluoro-4-iodo-phenylamino)-phenyl]-[1,3,4]oxadiazol-2-yl}-ethane-1,2-diamine] | 156 to 158 °C | –
CCc1ccc(Nc2c(-c3nnc(N(C)CCc4ccccn4)o3)ccc(F)c2F)c(F)c1 [Example 127, {5-[2-(4-Ethyl-2-fluoro-phenylamino)-3,4-difluoro-phenyl]-1,3,4-oxadiazol-2-yl}-methyl-(2-pyridin-2-yl-ethyl)-amine] | – | C26CPA1 % Inhibition @ 0.1 μM [1]: 0%; C26CPA1 % Inhibition @ 1 μM [1]: 0%
CCc1ccc(Nc2c(-c3nnc(NCC(c4cccnc4)N4CCOCC4)o3)ccc(F)c2F)c(F)c1 (stereo not drawn) [Example 128, {5-[2-(4-Ethyl-2-fluoro-phenylamino)-3,4-difluoro-phenyl]-1,3,4-oxadiazol-2-yl}-(2-morpholin-4-yl-2-pyridin-3-yl-ethyl)-amine] | – | C26CPA1 % Inhibition @ 0.1 μM [1]: 0%; C26CPA1 % Inhibition @ 1 μM [1]: 0%
CCc1ccc(Nc2c(-c3nnc(NC(C)Cc4ccsc4)o3)ccc(F)c2F)c(F)c1 (stereo not drawn) [Example 137, {5-[2-(4-Ethyl-2-fluoro-phenylamino)-3,4-difluoro-phenyl]-1,3,4-oxadiazol-2-yl}-(1-methyl-2-thiophen-3-yl-ethyl)-amine] | – | C26CPA1 % Inhibition @ 0.1 μM [1]: 72.1%; C26CPA1 % Inhibition @ 1 μM [1]: 85.3%
CNCCNc1nnc(-c2ccc(F)c(F)c2Nc2ccc(CCO)cc2F)o1 [Example 167, 2-(4-{2,3-difluoro-6-[5-(2-methylamino-ethylamino)-1[1,3,4]oxadiazol-2-yl]-phenylamino}-3-fluoro-phenyl)-ethanol] | – | IC50 ([1]; murine colon 26 (C26) carcinoma cells, one hour at 37 C): 910 nM
